Data from US8952221B2, “Enzymes that synthesize zingiberene” (Board of Trustees of Michigan State University, priority 2011, dated 2015).

Test system: LA2167-ZIS zingiberene synthase
Experiment: Recombinant LA2167-ZIS enzyme activity assay, soluble protein from E. coli BL21 plus isoprenoid diphosphate substrate, headspace SPME GC-MS
Type: biochemical, Solanum habrochaites
Conditions: for Peak Area % of products synthesized by recombinant LA2167-ZIS: substrate 2Z,6Z-Farnesyl diphosphate, SEQ ID NO:3 in pHIS8, E. coli BL21 DE3, GC-MS; for Products synthesized by LA2167-ZIS from the supplied substrate: 10 μM substrate, 2 μg soluble protein, 30 min at 30° C., GC-MS extracted ion 93
Experimental: The synthetic gene was excised from the pUC57 cloning vector by digestion with BamHI and SalI and ligated into the pHIS8 vector previously linearized by digestion with the same enzymes. Recombinant clones were transformed into E. coli BL21 cells. A 5-mL log-phase culture of E. coli BL21 cells containing the expression vector was induced by addition of IPTG to a final concentration of 0.1 mM. The induced cells were incubated with agitation at 25° C. for 16 h, and then harvested by centrifugation at 10,000 g for 15 min. The cell pellet was resuspended in 1 mL extraction buffer (50 mM HEPES pH 8, 5% glycerol, 100 mM KCl, 7.5 mM MgCl2 containing 1 mM dithiothreitol (DTT)) prior to sonication. Soluble proteins were harvested after centrifugation at 10,000 g for 20 min. The supernatant was used for subsequent enzyme assays. Two micrograms of soluble protein were mixed with 10 μM of substrate (GPP, NPP, EE-FPP or 2Z, 6Z-FPP (Echelon Biosciences Inc., Salt Lake City, Utah)) in a 2-mL glass vial. Reactions were allowed to proceed for 30 min at 30° C., and the glass vial headspace was collected with a 65 μm polydimethylsiloxane-divinylbenzene solid-phase microextraction fiber (Supelco, Bellefonte, Pa.). After 5 min of exposure at 42° C., the SPME fiber was retracted and transferred to the GC injector port for desorption at 200° C. onto the GC column for 3 min. The terpenes were separated on a DB5 column (10 m length, inner diameter and 0.25 um). The GC-MS analysis was performed as described previously […] et al. (Plant Physiol 153, 1212-1223 (2010)).

| Molecule | Peak Area % of products synthesized by recombinant LA2167-ZIS | Products synthesized by LA2167-ZIS from the supplied substrate |
| --- | --- | --- |
| bergamotene | 0.273% | – |
| zingiberene | 97.839% | – |
| C=C(C)C(CO)C/C=C(/C)CCC=C(C)C (stereo not drawn) [Sesquilavandulol <Z>] | 0.228% | – |
| C=C(CCC=C(C)C)[C@@H]1CC=C(C)CC1 [Bisabolene beta] | 0.107% | – |
| CC(C)=CCCC(C)c1ccc(C)cc1 (stereo not drawn) [AR-curcumene] | 0.986% | – |
| CC(C)=CCC/C(C)=C\COP(=O)(O)OP(=O)(O)O [neryl diphosphate, reference compound] | – | failed to synthesize any products |
| CC(C)=CCC/C(C)=C/COP(=O)(O)OP(=O)(O)O [geranyl diphosphate, reference compound] | – | failed to synthesize any products |
| CC(C)=CCC/C(C)=C\CC/C(C)=C\COP(=O)(O)OP(=O)(O)O [2Z,6Z-farnesyl diphosphate, (2Z,6Z)-farnesyl diphosphate, reference compound] | – | zingiberene peak at about 4.65 is only observed |
| C=C1C=CC(C(C)CCC=C(C)C)CC1 (stereo not drawn) [Sesquiphellandrene beta] | 0.567% | – |
